The source of these data is patent US11827628B2, “Compositions and methods for inhibition of the JAK pathway” (Rigel Pharmaceuticals, Inc., priority 2005, dated 2023).

In the test the test system is IL-4 stimulated expression of CD23 in human Ramos B cells (JAK-1 and JAK-3). The experiment in a line: Assay for Ramos B-Cell Line Stimulated with IL-4 (CD23 upregulation, FACS). The format is cell-based. The settings on record: read-out: IC50, Example 41. The text has this: One means of assaying for such inhibition is detection of the effect of the 2,4-substituted pyrimidinediamine compounds on the upregulation of downstream gene products. In the Ramos/IL4 assay, B-cells are stimulated with the cytokine Interleukin-4 (IL-4) leading to the activation of the JAK/Stat pathway through phosphorylation of the JAK family kinases, JAK1 and JAK3, which in turn phosphorylate and activate the transcription factor Stat-6. […] To study the effect of inhibitors (e.g., the 2,4-substituted pyrimindinediamine compounds described herein) on the JAK1 and JAK3 kinases, human Ramos B cells are stimulated with human IL-4. Twenty to 24 hours post stimulation, cells are stained for upregulation of CD23 and analyzed using flow cytometry (FACS). […] An exemplary assay of this type is described in greater detail in Example 41
B-cells stimulated with cytokine Interleukin-4 (IL-4) activate the JAK/Stat pathway through phosphorylation of the JAK family kinases, JAK-1 and JAK-3, which in turn phosphorylate and activate the transcription factor Stat-6. […] To study the effect of inhibitors on the JAK family kinases, human Ramos B cells are stimulated with human IL-4.
The Ramos B-cell line was acquired from ATCC (ATCC Catalog No. CRL-1596). The cells were cultured in RPMI 1640 (Cellgro, MediaTech, Inc., Herndon, VA, Cat No. 10-040-CM) with 10% fetal bovine serum (FBS), heat inactivated (JRH Biosciences, Inc, Lenexa, Kansas, Cat No. 12106-500M) according to ATCC propagation protocol. Cells were maintained at a density of 3.5×10^5. The day before the experiment, Ramos B-cells were diluted to 3.5×10^5 cells/mL to ensure that they were in a logarithmic growth phase.
Cells were spun down and suspended in RPMI with 5% serum. 5×10^4 cells were used per point in a 96-well tissue culture plate. Cells were pre-incubated with compound or DMSO (Sigma-Aldrich, St. Louis, MO, Cat No. D2650) vehicle control for 1 hour in a 37° C. incubator. Cells were then stimulated with IL-4 (Peprotech Inc., Rocky Hill, NJ, Cat No. 200-04) for a final concentration of 50 units/mL for 20-24 hours. Cells were then spun down and stained with anti-CD23-PE(BD Pharmingen, San Diego, CA, Cat No. 555711) and analyzed by FACS. Detection was performed using a BD LSR I System Flow Cytometer, purchased from Becton Dickinson Biosciences of San Jose, California The IC50 calculated based on the results of this assay are provided in TABLE XII.

[1] abbreviates: Ramos B-cell line stimulated with IL-4, CD23 expression by FACS.
The mark [2] stands for this setting: Ramos B-cell line stimulated with IL-4, CD23 expression by FACS, sodium salt.
The mark [3] stands for this setting: Ramos B cells stimulated with IL-4, CD23 expression by FACS.
[4] abbreviates: Homo sapiens, Ramos, Ramos B cells stimulated with IL-4, CD23 expression by FACS.
Where [5] appears, read: Homo sapiens, Ramos, Ramos B-cell line stimulated with IL-4, CD23 expression by FACS.

Where a name gives a salt, the structure may show the parent alone. Read-outs that look alike come from different tables or passages of the source.

What is called IC50 is the midpoint of a concentration-inhibition curve. As for `COC(=O)CN(c1ccc(OCc2cc(C)on2)cc1)c1nc(Nc2ccc(C)c(S(N)(=O)=O)c2)ncc1F` [Compound I-227, N2-(3-Aminosulfonyl-4-methylphenyl)-5-fluoro-N4-methoxycarbonylmethyl-N4-[4-(5-methylisoxazol-3-yl)methyleneoxyphenyl]-2,4-pyrimidinediamine], under setting [1], the IC50 was found to be 1480 nM.

For the molecule `CCC(=O)NS(=O)(=O)c1cc(Nc2ncc(F)c(Nc3ccc(OCc4cc(C)on4)cc3)n2)ccc1C` [Compound I-228, 5-Fluoro-N4-[4-(5-methylisoxazol-3-yl)methyleneoxyphenyl]-N2-(4-methyl-3-propionylaminosulfonylphenyl)-2,4-pyrimidinediamine], the IC50 under setting [1] amounted to 3810 nM.

Regarding `Cc1cc(COc2ccc(Nc3nc(Nc4ccc(C)c(S(=O)(=O)NC(=O)C(C)C)c4)ncc3F)cc2)no1` [Compound I-229, 5-Fluoro-N4-[4-(5-methylisoxazol-3-yl)methyleneoxyphenyl]-N2-(4-methyl-3-(2-methylpropionyl)aminosulfonylphenyl)-2,4-pyrimidinediamine], the IC50 under setting [1] amounted to 3760 nM. For the molecule `CC(=O)NS(=O)(=O)c1cccc(Nc2ncc(F)c(Nc3ccc(OCc4cc(C)on4)cc3)n2)c1` [Compound I-232, N2-(3-Acetamidosulfonylphenyl)-5-fluoro-N4-[4-(5-methylisoxazol-3-yl)methyleneoxyphenyl]-2,4-pyrimidinediamine], the IC50 under setting [1] amounted to 1430 nM.

For the molecule `CCC(=O)NS(=O)(=O)c1cccc(Nc2ncc(F)c(Nc3ccc(OCc4cc(C)on4)cc3)n2)c1` [Compound I-236], the 50% inhibitory concentration (IC50) under setting [1] is 1980 nM. For the molecule `CCC(=O)NS(=O)(=O)c1cccc(Nc2ncc(F)c(Nc3ccc(OCc4cc(C)on4)cc3)n2)c1` [Compound I-242, 5-Fluoro-N4-[4-(5-methylisoxazol-3-yl)methyleneoxyphenyl]-N2-(3-N-propanamido)sulfonylphenyl)]-2,4-pyrimidinediamine sodium salt], under setting [2], the IC50 amounted to 520 nM. The same measure, in the same setting: to `CC(=O)NS(=O)(=O)c1cccc(Nc2ncc(F)c(Nc3ccc(OCc4cc(C)on4)cc3)n2)c1` [Compound I-243, N2-(3-Acetamidosulfonylphenyl)-5-fluoro-N4-[4-(5-methylisoxazol-3-yl)methyleneoxyphenyl]-2,4-pyrimidinediamine sodium salt] belongs 917 nM.

Turning to `Cc1cc(COc2ccc(Nc3nc(Nc4cccc(S(=O)(=O)NCc5oc(=O)oc5C(C)(C)C)c4)ncc3F)cc2)no1` [Compound I-250, N2-{3-[(N-5-t-Butyl-1,3-dioxolene-2-one-4-yl)methylene]aminosulfonylphenyl}-5-fluoro-N4-[4-(5-methylisoxazol-3-yl)methyleneoxyphenyl]-2,4-pyrimidinediamine], the IC50 under setting [1] was 673 nM. The same measure, in the same setting: as for `CNS(=O)(=O)c1ccc(Nc2ncc(F)c(Nc3ccc(OC(F)(F)F)c(Cl)c3)n2)cc1OC` [Compound I-269, 5-fluoro-N2-(4-N-methylaminosulfonyl)-3-methoxyphenyl-N4-(4-trifluoromethoxy-3-chlorophenyl)-2,4-pyrimidinediamine], the figure is 917 nM. With `CNS(=O)(=O)c1ccc(Nc2ncc(F)c(Nc3cccc(O)c3)n2)cc1OC` [Compound I-270], the IC50 under setting [1] came out at 780 nM. On to `Cc1nc(COc2ccc(Nc3nc(Nc4cccc(S(=O)(=O)N5CCN(C)CC5)c4)ncc3F)cc2)no1` [Compound I-274, 5-Fluoro-N4-[4-(5-methyl-1,2,4-oxadiazol-3-yl)methoxy]phenyl-N2-[3-(4-methylpiperazin-1-yl)sulfonyl]phenyl-2,4-pyrimidinediamine], for which the IC50 under setting [1] was 1170 nM. As for `Cc1ccc(Nc2ncc(F)c(Nc3ccc4c(c3)N(Cc3ccccn3)C(=O)CO4)n2)cc1S(N)(=O)=O` [Compound V-2, N2-(3-Aminosulphonyl-4-methylphenyl)-5-fluoro-N4-[3-oxo-4-(2-pyridylmethy)-benz[1,4]oxazin-6-yl]-2,4-pyrimidinediamine], under setting [3], the concentration for half-maximal inhibition (IC50) was 1180 nM. Still for that read-out and setting: as for `Cc1ccc(Nc2ncc(F)c(Nc3ccc4sc(CCC#N)cc4c3)n2)cc1S(N)(=O)=O` [Compound V-16, N2-(3-Aminosulfonyl-4-methylphenyl)-N4-(2-cyanoethylene-benzothiophen-5-yl)-5-fluoro-2,4-pyrimidinediamine], the figure is 8370 nM. As for `CCN(CC)S(=O)(=O)c1ccc(OC)c(Nc2nc(Nc3ccc(Cl)c(Cl)c3)cc(C(=O)OC)n2)c1` [Compound X-1, 6-carbonylmethoxy-N4-(3,4-dichlorophenyl)-N2-(3-N,N-diethylaminosulfonyl-6-methoxyphenyl)-2,4-pyrimidinediamine], under setting [4], the half-maximal inhibitory concentration (IC50) came to 8250 nM. Still for that read-out and setting: as for `CCN(CC)S(=O)(=O)c1ccc(OC)c(Nc2nc(Nc3ccc4c(c3)NC(=O)C(C)(C)O4)cc(C(=O)OC)n2)c1` [Compound X-2], the figure is 1840 nM. `Cc1cc(Nc2nc(Nc3ccc(C)c(S(N)(=O)=O)c3)ncc2F)ccc1OC1CCN(C)CC1` [II-5, N2-(3-Aminosulfonyl-4-methylphenyl)-5-fluoro-N4-{3-methyl-4-[(1-methylpiperidin-4-yl)oxy]phenyl}-2,4-pyrimidinediamine]: the IC50 under setting [5] was determined as 2210 nM. On to `CNS(=O)(=O)c1cc(Nc2ncc(F)c(Nc3ccc(Oc4cccnc4)cc3)n2)ccc1C` [II-13, 5-Fluoro-N2-[3-N-(methylaminosulfonyl)-4-methylphenyl]-N4-[4-(3-pyridyloxy)phenyl]-2,4-pyrimidinediamine], for which the 50% inhibitory concentration (IC50) under setting [1] is 323 nM.

For `N#CCc1ccc(Nc2nc(Nc3ccc(S(N)(=O)=O)cc3)ncc2F)cc1` [III-3, N2-(4-Aminosulfonyl)phenyl-N4-(4-cyanomethyl)phenyl-5-fluoro-2,4-pyrimidinediamine], the concentration for half-maximal inhibition (IC50) under setting [1] amounted to 536 nM. Same read-out and setting: as for `CN1CCN(S(=O)(=O)c2cccc(Nc3ncc(F)c(Nc4ccc(CC#N)cc4)n3)c2)CC1` [III-5, N4-(4-Cyanomethyl)phenyl-5-fluoro-N2-[3-(4-methylpiperazin-1-yl)sulfonyl]phenyl-2,4-pyrimidinediamine], the figure is 4980 nM. As for `Cc1cc(CCC#N)ccc1Nc1nc(Nc2ccc(C)c(S(N)(=O)=O)c2)ncc1F` [III-23, N2-(3-Aminosulfonyl-4-methylphenyl)-N4-(4-cyanoethylene-2-methylphenyl)-5-fluoro-2,4-pyrimidinediamine], the IC50 under setting [1] stood at 397 nM. As for `CCC(=O)NCc1ccc(Nc2nc(Nc3ccc(S(N)(=O)=O)cc3)ncc2F)cc1` [III-35, N2-(4-aminosulfonyl)phenyl-N4-(4-ethylcarbonylaminomethyl)phenyl-5-fluoro-2,4-pyrimidinediamine], under setting [1], the half-inhibitory concentration (IC50) was found to be 1080 nM. For `NS(=O)(=O)c1ccc(Nc2ncc(F)c(Nc3ccc(CNC(=O)C4CC4)cc3)n2)cc1` [III-41, N2-(4-aminosulfonyl)phenyl-N4-(4-cyclopropylcarbonylaminomethyl)phenyl-5-fluoro-2,4-pyrimidinediamine], under setting [1], the half-inhibitory concentration (IC50) was determined as 1010 nM. Regarding `C=CC(=O)NCc1ccc(Nc2nc(Nc3ccc(S(N)(=O)=O)cc3)ncc2F)cc1` [III-44, N4-(4-Acrylamidomethylphenyl)-N2-(4-aminosulfonylphenyl)-5-fluoro-2,4-pyrimidinediamine], under setting [5], the 50% inhibitory concentration (IC50) was 1430 nM. Consider `NC(=O)CCc1ccc(Nc2nc(Nc3ccc(S(N)(=O)=O)cc3)ncc2F)cc1` [III-49, N4-[4-(2-Aminocarboxylethylene)phenyl]-N2-(4-aminosulfonylphenyl)-5-fluoro-2,4-pyrimidinediamine], for which, under setting [1], the half-maximal inhibitory concentration (IC50) came out at 178 nM.

Turning to `CCn1nccc1NC(=O)Cc1ccc(Nc2nc(Nc3cccc(S(N)(=O)=O)c3)ncc2F)cc1` [III-51, N2-(3-Aminosulfonylphenyl)-N4-[(1-ethylpyrazolyl-5-aminocarbonylmethylene)phenyl]-5-fluoro-2,4-pyrimidinediamine], under setting [1], the concentration for half-maximal inhibition (IC50) was 1010 nM. Regarding `CCC(=O)NS(=O)(=O)c1cccc(Nc2ncc(F)c(Nc3ccc(Cc4ccncc4)cc3)n2)c1` [III-68], under setting [1], the IC50 is 3230 nM. In the case of `CCC(=O)NS(=O)(=O)c1cccc(Nc2ncc(F)c(Nc3ccc(Cc4ccncc4)cc3)n2)c1` [III-69, 5-Fluoro-N4-[4-(4-pyridinylmethyl)phenyl]-N2-[(3-N-propanamido)sulfonylphenyl)]-2,4-pyrimidinediamine sodium salt], the IC50 under setting [2] amounted to 3320 nM.
